These are literature values, as cited in patent US20200386739A1, “TREATMENT OF METAHNOGENIC BACTERIA AS A THERAPY FOR CHRONIC LUNG DISEASE” (priority 2019, published 2020).

Positions of bridges follow the written chain, without caps; N, C: chain ends. Non-standard residues stand in square brackets, D forms with d. Residues, ends and D or L forms follow the SMILES beside them. *: point of attachment. Ileψ(thiazoline)Cys = CC[C@H](C)[C@H](N)C1=N[C@H](C(=O)*)CS1; dOrn = NCCC[C@@H](N)C(=O)O

One data set deals with Methanogens. The settings on record: cell wall lacks peptidoglycan.
Data set [1] deals with methane producing patients with IBS-C and chronic constipation.
Data set [2] relates to guinea pig muscle strips from the ileum.
For a further data set, the system named is small intestine of dogs. The settings on record: in vivo infusion of methane into the small intestine of dogs; scintigraphy.
The next data set deals with guinea pig ileum. The settings on record: guinea pig ileum exposed to methane.

`CC[C@H](C)[C@H](N)C1=N[C@H](C(=O)N[C@@H](CC(C)C)C(=O)N[C@H](CCC(=O)O)C(=O)N[C@H](C(=O)N[C@H]2CCCCNC(=O)[C@H](CC(N)=O)NC(=O)[C@@H](CC(=O)O)NC(=O)[C@H](Cc3cnc[nH]3)NC(=O)[C@@H](Cc3ccccc3)NC(=O)[C@H]([C@@H](C)CC)NC(=O)[C@@H](CCCN)NC2=O)[C@@H](C)CC)CS1` [bacitracin] ({Ileψ(thiazoline)Cys}-L[dE]IK[dOrn]I[dF]H[dD]N; lactam 4-C): the susceptibility of methanogens result with Methanogens is “susceptible”.

As for `CO[C@H]1/C=C/O[C@@]2(C)Oc3c(C)c(O)c4c(O)c(c5c(nc6cc(C)ccn65)c4c3C2=O)NC(=O)/C(C)=C\C=C\[C@H](C)[C@H](O)[C@@H](C)[C@@H](O)[C@@H](C)[C@H](OC(C)=O)[C@@H]1C` [rifaximin], in data set [1], the “colonic transit time and constipation symptoms” value is recorded as “improvement”; the methane production entry was “reduced”.

Consider `NC1=N[C@H](O)[C@H]2[C@H]3O[C@]4(O)O[C@@H]([C@@H](O)[C@@]2(N1)[C@@H]4O)[C@]3(O)CO` [tetrodotoxin], for which, in data set [2], the “effect on the methane-induced increase of contractile amplitude” value was “blocked”.

Take `O=C(N[C@H](CO)[C@H](O)c1ccc([N+](=O)[O-])cc1)C(Cl)Cl` [chloramphenicol]: in the data set on Methanogens, the susceptibility of methanogens entry is “susceptible”.

Take `C` [methane]: in the data set on small intestine of dogs, the “slowing of small intestinal transit time” value was 59%. Besides, the contractile amplitude entry in data set [2] (methane infusion, ileum muscle strips) is given as “increased”. In the data set on guinea pig ileum, the amplitude of contractions entry is “increased”, the “area under the curve (AUC) of intraluminal pressure” value is on record as “increased” and the peristaltic velocity entry was “significantly decreased”.

As to `CN1[C@@H]2CC[C@H]1C[C@@H](OC(=O)C(CO)c1ccccc1)C2` (some centres unmarked) [atropine], the “effect on the methane-induced increase of contractile amplitude” value in data set [2] is recorded as “reduced”.
